Reference: patent US7998982B2, “Amide derivatives as TRPV1 antagonists” (Abbott Laboratories, priority 2007, dated 2011)

These compounds were tested against T1, human TRPV1 receptor (Homo sapiens, UniProt Q8NER1) (assay: Ca2+ influx assay (FLIPR, Fluo-4 AM) of capsaicin-evoked response in cells expressing recombinant TRPV1). Settings: 1321N1 human astrocytoma cells expressing hTRPV1; inhibition of 0.05 μM capsaicin-induced [Ca2+]i increase.
T1 construct: expressed in transfected cells
Type: cell-based
Description: Dulbecco's modified Eagle medium (D-MEM) (with 4.5 mg/mL glucose) and fetal bovine serum were obtained from Hyclone Laboratories, Inc. (Logan, Utah). Dulbecco's phosphate-buffered saline (D-PBS) (with 1 mg/mL glucose and 3.6 mg/l Na pyruvate, without phenol red), L-glutamine, hygromycin B, and Lipofectamine® were obtained from Life Technologies (Grand Island, N.Y.). G418 sulfate was obtained from Calbiochem-Novabiochem Corp. (San Diego, Calif.). Capsaicin (8-methyl-N-vanillyl-6-nonenamide) was obtained from Sigma-Aldrich, Co. (St. Louis, Mo.). Fluo-4 AM (N-[4-[6-[(acetyloxy)methoxy]-2,7-difluoro-3-oxo-3H-xanthen-9-yl]-2-[2-[2-[bis[2-[(acetyloxy)methoxy]-2-oxyethyl]amino]-5-methylphenoxy]ethoxy]phenyl]-N-[2-[(acetyloxy)methoxy]-2-oxyethyl]-glycine, (acetyloxy)methyl ester) was purchased from Molecular Probes (Eugene, Oreg.).
The cDNAs for the human TRPV1 receptor were isolated by reverse transcriptase-polymerase chain reaction (RT-PCR) from human small intestine poly A+RNA supplied by Clontech (Palo Alto, Calif.) using primers designed surrounding the initiation and termination codons identical to the published sequences (Hayes et al. Pain 2000, 88, 205-215). The resulting cDNA PCR products were subcloned into pCIneo mammalian expression vector (Promega) and fully sequenced using fluorescent dye-terminator reagents (Prism, Perkin-Elmer Applied Biosystems Division) and a Perkin-Elmer Applied Biosystems Model 373 DNA sequencer or Model 310 genetic analyzer. Expression plasmids encoding the hTRPV1 cDNA were transfected individually into 1321N1 human astrocytoma cells using Lipofectamine®. Forty-eight hours after transfection, the neomycin-resistant cells were selected with growth medium containing 800 μg/mL Geneticin (Gibco BRL). Surviving individual colonies were isolated and screened for TRPV1 receptor activity. Cells expressing recombinant homomeric TRPV1 receptors were maintained at 37° C. in D-MEM containing 4 mM L-glutamine, 300 μg/mL G418 (Cal-biochem) and 10% fetal bovine serum under a humidified 5% CO2 atmosphere.
The functional activity of compounds at the TRPV1 receptor was determined with a Ca^2+ influx assay and measurement of intracellular Ca^2+ levels ([Ca^2+]i). All compounds were tested over an 11-point half-log concentration range. Compound solutions were prepared in D-PBS (4× final concentration), and diluted serially across 96-well v-bottom tissue culture plates using a Biomek 2000 robotic automation workstation (Beckman-Coulter, Inc., Fullerton, Calif.). A 0.2 μM solution of the TRPV1 agonist capsaicin was also prepared in D-PBS. The fluorescent Ca^2+ chelating dye Fluo-4 AM was used as an indicator of the relative levels of [Ca^2+]i in a 96-well format using a Fluorescence Imaging Plate Reader (FLIPR) (Molecular Devices, Sunnyvale, Calif.). Cells were grown to confluency in 96-well black-walled tissue culture plates. Then, prior to the assay, the cells were loaded with 100 μL per well of Fluo-4 AM (2 μM, in D-PBS) for 1-2 hours at 23° C. Washing of the cells was performed to remove extracellular Fluo-4 AM (2×1 mL D-PBS per well), and afterward, the cells were placed in the reading chamber of the FLIPR instrument. 50 μL of the compound solutions were added to the cells at the 10 second time mark of the experimental run. Then, after a 3-minute time delay, 50 μL of the capsaicin solution was added at the, 190 second time mark (0.05 μM final concentration)(final volume=200 μL) to challenge the TRPV1 receptor. Time length of the experimental run was 240 seconds. Fluorescence readings were made at 1 to 5 second intervals over the course of the experimental run. The peak increase in relative fluorescence units (minus baseline) was calculated from the 190 second time mark to the end of the experimental run, and expressed as a percentage of the 0.05 μM capsaicin (control) response. […]

T1 sequence (Q8NER1 whole entry): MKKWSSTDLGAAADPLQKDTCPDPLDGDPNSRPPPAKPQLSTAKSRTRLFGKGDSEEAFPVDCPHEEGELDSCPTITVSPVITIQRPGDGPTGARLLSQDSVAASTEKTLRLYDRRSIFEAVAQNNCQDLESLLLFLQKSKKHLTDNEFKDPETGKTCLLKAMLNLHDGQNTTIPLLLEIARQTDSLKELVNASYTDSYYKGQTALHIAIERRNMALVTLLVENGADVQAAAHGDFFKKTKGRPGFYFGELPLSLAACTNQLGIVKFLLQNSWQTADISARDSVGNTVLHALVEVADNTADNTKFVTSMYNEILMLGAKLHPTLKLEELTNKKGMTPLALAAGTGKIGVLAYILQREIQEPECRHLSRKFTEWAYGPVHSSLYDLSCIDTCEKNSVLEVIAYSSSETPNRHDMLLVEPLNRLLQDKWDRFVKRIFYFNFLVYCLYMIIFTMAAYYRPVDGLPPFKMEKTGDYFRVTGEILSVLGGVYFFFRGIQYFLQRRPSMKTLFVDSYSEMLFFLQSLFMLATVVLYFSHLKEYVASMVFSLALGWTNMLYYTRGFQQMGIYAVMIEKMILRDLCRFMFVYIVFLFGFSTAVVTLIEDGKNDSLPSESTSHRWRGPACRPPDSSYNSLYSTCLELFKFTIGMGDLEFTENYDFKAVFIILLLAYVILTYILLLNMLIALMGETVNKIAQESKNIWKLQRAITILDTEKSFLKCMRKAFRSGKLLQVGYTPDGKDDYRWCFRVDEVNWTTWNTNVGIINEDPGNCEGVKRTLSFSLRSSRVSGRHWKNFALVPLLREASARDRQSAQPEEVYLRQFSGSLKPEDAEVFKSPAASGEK

Row | Compound | IC50 [µM]
1 | C[C@H]1CN(c2ncccc2Cl)CC=C1C(=O)Nc1ccc(C(F)(F)F)cc1 [Example 7, (3R)-3′-chloro-3-methyl-N-[4-(trifluoromethyl)phenyl]-3,6-dihydro-2H-1,2′-bipyridine-4-carboxamide] | 0.084
2 | C[C@@H]1CN(c2ncccc2C(F)(F)F)CC=C1C(=O)Nc1ccc(S(=O)(=O)C(F)(F)F)cc1 (single isomer, unassigned) [Example 11] | 0.04
3 | C[C@@H]1CN(c2ncccc2C(F)(F)F)CC=C1C(=O)Nc1ccc(C(C)(C)C#N)cc1 (single isomer, unassigned) [Example 13] | 0.089
4 | Cc1cccnc1N1CC=C(C(=O)Nc2ccc(C(F)(F)F)cc2)[C@@H](C)C1 (single isomer, unassigned) [Example 9] | 0.38
5 | C[C@H]1CN(c2ncccc2C(F)(F)F)CC=C1C(=O)Nc1ccc(S(=O)(=O)C(F)(F)F)cc1 (single isomer, unassigned) [Example 12] | 0.64
6 | Cc1cccnc1N1CC=C(C(=O)Nc2ccc(C(C)(C)C)cc2)[C@@H](C)C1 (single isomer, unassigned) [Example 16] | 0.62
7 | Cc1cccnc1N1CC=C(C(=O)Nc2ccc(C(F)(F)F)nc2)[C@H](C)C1 (single isomer, unassigned) [Example 19] | 0.19
8 | C[C@H]1CN(c2ncccc2C(F)(F)F)CC=C1C(=O)Nc1ccc(C(F)(F)F)cc1 (single isomer, unassigned) [Example 10] | 0.48
9 | Cc1cccnc1N1CC=C(C(=O)Nc2ccc(C(F)(F)F)nc2)[C@@H](C)C1 (single isomer, unassigned) [Example 20] | 3.1
10 | C[C@H]1CN(c2ncccc2Cl)CC=C1C(=O)Nc1ccc(S(=O)(=O)C(F)(F)F)cc1 [Example 5, (3R)-3′-chloro-3-methyl-N-{4-[(trifluoromethyl)sulfonyl]phenyl}-3,6-dihydro-2H-1,2′-bipyridine-4-carboxamide] | 0.23
11 | Cc1cccnc1N1CC=C(C(=O)Nc2ccc(C(F)(F)F)cc2)[C@H](C)C1 [Example 8, (3S)-3,3′-dimethyl-N-[4-(trifluoromethyl)phenyl]-3,6-dihydro-2H-1,2′-bipyridine-4-carboxamide] | 0.063
12 | Cc1cccnc1N1CC=C(C(=O)Nc2ccc(S(=O)(=O)C(F)(F)F)cc2)[C@@H](C)C1 [Example 6, (3R)-3,3′-dimethyl-N-{4-[(trifluoromethyl)sulfonyl]phenyl}-3,6-dihydro-2H-1,2′-bipyridine-4-carboxamide] | 0.76
13 | C[C@H]1CN(c2ncccc2C(F)(F)F)CC=C1C(=O)Nc1ccc(C(C)(C)C#N)cc1 (single isomer, unassigned) [Example 14] | 0.71
14 | Cc1cccnc1N1CC=C(C(=O)Nc2ccc(C(C)(C)C#N)cc2)[C@@H](C)C1 [Example 18, (3R)—N-(4-(2-cyanopropan-2-yl)phenyl)-3-methyl-1-(3-methylpyridin-2-yl)-1,2,3,6-tetrahydropyridine-4-carboxamide] | 1.3

Compounds with a lower IC50, results first:

Row | IC50 [µM] | Compound
15 | 0.02 | C[C@@H]1CN(c2ncccc2Cl)CC=C1C(=O)Nc1ccc(C(F)(F)F)cc1 [Example 2, (3S)-3′-chloro-3-methyl-N-[4-(trifluoromethyl)phenyl]-3,6-dihydro-2H-1,2′-bipyridine-4-carboxamide]
16 | 0.02 | Cc1cccnc1N1CC=C(C(=O)Nc2ccc(S(=O)(=O)C(F)(F)F)cc2)[C@H](C)C1 [Example 3, (3S)-3,3′-dimethyl-N-{4-[(trifluoromethyl)sulfonyl]phenyl}-3,6-dihydro-2H-1,2′-bipyridine-4-carboxamide]
17 | 0.015 | Cc1cccnc1N1CC=C(C(=O)Nc2ccc(C(C)(C)C)cc2)[C@H](C)C1 (single isomer, unassigned) [Example 15]
18 | 0.028 | C[C@@H]1CN(c2ncccc2Cl)CC=C1C(=O)Nc1ccc(S(=O)(=O)C(F)(F)F)cc1 [Example 1, (3S)-3′-chloro-3-methyl-N-{4-[(trifluoromethyl)sulfonyl]phenyl}-3,6-dihydro-2H-1,2′-bipyridine-4-carboxamide]
19 | 0.013 | Cc1cccnc1N1CC=C(C(=O)Nc2ccc(C(C)(C)C#N)cc2)[C@H](C)C1 (single isomer, unassigned) [Example 17]
20 | 0.026 | C[C@@H]1CN(c2ncccc2C(F)(F)F)CC=C1C(=O)Nc1ccc(C(F)(F)F)cc1 [Example 4, (3S)-3-methyl-3′-(trifluoromethyl)-N-[4-(trifluoromethyl)phenyl]-3,6-dihydro-2H-1,2′-bipyridine-4-carboxamide]
